Peptide text beside a SMILES is read from it.
Tested on: Botrytis cinerea (B05.10)
Assay: Resazurin antifungal assay of 180 alpha-factor peptide variants towards Botrytis (Example 2)
Format: cell-based
Set-up: key to active against Botrytis at 15 μM / active against Botrytis at 10 μM: Peptides that showed greater than 90% inhibition were considered active against Botrytis
Conditions: for Inhibition at 50 μM / Inhibition at 100 μM / Inhibition at 10 μM / Inhibition at 15 μM / Inhibition at 20 μM: % inhibition of fungal growth, Botrytis conidia, resazurin; for Inhibition at 50 μM: peptide 50 μM; for Inhibition at 100 μM: peptide 100 μM; for Inhibition at 10 μM: peptide 10 μM; for Inhibition at 15 μM / active against Botrytis at 15 μM: peptide 15 μM; for Inhibition at 20 μM: peptide 20 μM
Outline: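 Resazurin viability read-out (570/620 nm fluorescence) after a 24 h, 20° C incubation of B05.10 conidia, 5000 per well, with peptide at final 10-100 μM. Growth inhibition (%) was derived by subtracting conidia-only fluorescence; four replicates per treatment.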

SMILES | Inhibition at 50 μM [%] | Inhibition at 100 μM [%] | Inhibition at 10 μM [%] | Inhibition at 15 μM [%] | Inhibition at 20 μM [%] | active against Botrytis at 15 μM
CSCC[C@H](NC(=O)[C@@H]1CCCN1C(=O)[C@H](CCC(N)=O)NC(=O)CNC(=O)[C@@H]1CCCN1C(=O)[C@H](CCCCN)NC(=O)[C@H](CC(C)C)NC(=O)[C@H](C)NC(=O)[C@H](CC(C)C)NC(=O)CNC(=O)CNC(=O)[C@@H](N)Cc1c[nH]c2ccccc12)C(=O)N[C@@H](Cc1ccc(O)cc1)C(=O)O [compound 48] (H-WGGLALKPGQPMY-OH; N-terminus and C-terminus assumed) | <90 | <90 |  |  |  | 
CSCC[C@H](NC(=O)[C@@H]1CCCN1C(=O)[C@H](CCC(N)=O)NC(=O)CNC(=O)[C@@H]1CCCN1C(=O)[C@H](Cc1ccc(O)cc1)NC(=O)[C@H](CC(C)C)NC(=O)[C@H](CCCCN)NC(=O)[C@H](CC(C)C)NC(=O)[C@H](Cc1c[nH]c2ccccc12)NC(=O)[C@H](CCC(=O)O)NC(=O)[C@@H]1CCCN1)C(=O)N[C@@H](Cc1ccc(O)cc1)C(=O)O [compound 49] (H-PEWLKLYPGQPMY-OH; N-terminus and C-terminus assumed) | <90 | <90 |  |  |  | 
CSCC[C@H](NC(=O)[C@H](CO)NC(=O)[C@H](CO)NC(=O)CNC(=O)[C@@H]1CCCN1C(=O)[C@H](CCCCN)NC(=O)[C@H](CC(C)C)NC(=O)[C@H](CCC(N)=O)NC(=O)[C@H](CC(C)C)NC(=O)[C@@H](NC(=O)[C@H](CCCNC(=N)N)NC(=O)[C@@H](N)Cc1c[nH]c2ccccc12)C(C)C)C(=O)N[C@@H](Cc1ccc(O)cc1)C(=O)O [compound 50] (H-WRVLQLKPGSSMY-OH; N-terminus and C-terminus assumed) | <90 | <90 |  |  |  | 
CC[C@H](C)[C@H](NC(=O)[C@H](CCCNC(=N)N)NC(=O)[C@@H](NC(=O)[C@H](Cc1c[nH]c2ccccc12)NC(=O)[C@H](Cc1c[nH]cn1)NC(=O)[C@@H](N)Cc1c[nH]c2ccccc12)C(C)C)C(=O)N[C@@H](Cc1c[nH]c2ccccc12)C(=O)N1CCC[C@H]1C(=O)NCC(=O)N[C@@H](CCC(N)=O)C(=O)N1CCC[C@H]1C(=O)N[C@@H](CCSC)C(=O)N[C@@H](Cc1ccc(O)cc1)C(=O)O [compound 51] (H-WHWVRIWPGQPMY-OH; N-terminus and C-terminus assumed) | 100 | 100 | <90 | <90 | 97.13 | 
CC[C@H](C)[C@H](NC(=O)[C@H](CCCNC(=N)N)NC(=O)[C@H](CC(C)C)NC(=O)[C@H](Cc1c[nH]c2ccccc12)NC(=O)[C@H](Cc1c[nH]cn1)NC(=O)[C@@H](N)CCCCN)C(=O)N[C@@H](CCCCN)C(=O)N[C@@H](Cc1c[nH]c2ccccc12)C(=O)NCC(=O)N[C@@H](CCC(=O)O)C(=O)N1CCC[C@H]1C(=O)N[C@@H](CCSC)C(=O)N[C@@H](Cc1ccc(O)cc1)C(=O)O [compound 52] (H-KHWLRIKWGEPMY-OH; N-terminus and C-terminus assumed) | 100 | 100 | <90 | 97.66 | 100 | active
CSCC[C@H](NC(=O)[C@@H]1CCCN1C(=O)[C@H](CCC(N)=O)NC(=O)CNC(=O)[C@@H](NC(=O)[C@H](CCCCN)NC(=O)[C@H](CC(C)C)NC(=O)[C@H](CCCNC(=N)N)NC(=O)[C@@H](NC(=O)[C@H](Cc1c[nH]c2ccccc12)NC(=O)[C@H](CCCCN)NC(=O)[C@@H](N)Cc1c[nH]c2ccccc12)C(C)C)[C@@H](C)O)C(=O)N[C@@H](Cc1ccc(O)cc1)C(=O)O [compound 53] (H-WKWVRLKTGQPMY-OH; N-terminus and C-terminus assumed) | 100 | 100 | <90 | <90 | 100 | 
CC[C@H](C)[C@H](NC(=O)[C@H](CCSC)NC(=O)[C@H](Cc1c[nH]cn1)NC(=O)[C@@H](N)CCCCN)C(=O)N[C@@H](CCC(N)=O)C(=O)N[C@@H](CC(C)C)C(=O)N[C@@H](Cc1ccc(O)cc1)C(=O)N[C@@H](Cc1c[nH]c2ccccc12)C(=O)NCC(=O)N[C@@H](CCC(N)=O)C(=O)N1CCC[C@H]1C(=O)N[C@@H](CCSC)C(=O)N[C@@H](Cc1ccc(O)cc1)C(=O)O [compound 54] (H-KHMIQLYWGQPMY-OH; N-terminus and C-terminus assumed) | 100 | 100 | <90 | <90 | 93.21 | 
CSCC[C@H](NC(=O)CNC(=O)[C@H](CO)NC(=O)CNC(=O)[C@@H]1CCCN1C(=O)[C@H](CCCCN)NC(=O)[C@H](CC(C)C)NC(=O)[C@H](CCCNC(=N)N)NC(=O)[C@H](CC(C)C)NC(=O)[C@H](Cc1ccc(O)cc1)NC(=O)[C@H](CCCNC(=N)N)NC(=O)[C@@H](N)Cc1c[nH]c2ccccc12)C(=O)N[C@@H](Cc1ccc(O)cc1)C(=O)O [compound 55] (H-WRYLRLKPGSGMY-OH; N-terminus and C-terminus assumed) | 100 | 100 | <90 | <90 | 99.43 | 
CSCC[C@H](NC(=O)[C@@H]1CCCN1C(=O)[C@H](CCC(N)=O)NC(=O)CNC(=O)[C@H](CCCNC(=N)N)NC(=O)[C@H](CCCCN)NC(=O)[C@H](CC(C)C)NC(=O)[C@H](CCCCN)NC(=O)[C@H](CC(C)C)NC(=O)[C@H](CO)NC(=O)[C@H](Cc1c[nH]cn1)NC(=O)[C@@H](N)Cc1c[nH]c2ccccc12)C(=O)N[C@@H](Cc1ccc(O)cc1)C(=O)O [compound 56] (H-WHSLKLKRGQPMY-OH; N-terminus and C-terminus assumed) | 100 | 100 | <90 | <90 | 99.84 | 
CC[C@H](C)[C@H](NC(=O)[C@H](C)NC(=O)[C@H](CC(C)C)NC(=O)[C@H](Cc1c[nH]c2ccccc12)NC(=O)[C@H](Cc1c[nH]cn1)NC(=O)[C@@H](N)Cc1c[nH]c2ccccc12)C(=O)N[C@@H](Cc1ccccc1)C(=O)N[C@@H](CCCNC(=N)N)C(=O)NCC(=O)N[C@@H](CCC(N)=O)C(=O)N1CCC[C@H]1C(=O)N[C@@H](CCSC)C(=O)N[C@@H](Cc1ccc(O)cc1)C(=O)O [compound 57] (H-WHWLAIFRGQPMY-OH; N-terminus and C-terminus assumed) | 100 | 100 | 3.45 |  | <90 | 
CC[C@H](C)[C@H](NC(=O)[C@H](CCC(N)=O)NC(=O)[C@@H](NC(=O)[C@H](Cc1c[nH]c2ccccc12)NC(=O)[C@H](CCCCN)NC(=O)[C@@H](N)Cc1c[nH]c2ccccc12)C(C)C)C(=O)N[C@@H](CCCCN)C(=O)N[C@@H](CCCCN)C(=O)NCC(=O)N[C@@H](C)C(=O)N1CCC[C@H]1C(=O)N[C@@H](CCSC)C(=O)N[C@@H](Cc1ccc(O)cc1)C(=O)O [compound 58] (H-WKWVQIKKGAPMY-OH; N-terminus and C-terminus assumed) | 100 | 100 | <90 |  | <90 | 
CC[C@H](C)[C@H](NC(=O)[C@H](Cc1c[nH]c2ccccc12)NC(=O)[C@H](Cc1c[nH]cn1)NC(=O)[C@@H](N)CCCCN)C(=O)N[C@H](C(=O)N[C@@H](CC(C)C)C(=O)N[C@@H](CCCCN)C(=O)N[C@@H](CO)C(=O)NCC(=O)N[C@@H](CCSC)C(=O)N1CCC[C@H]1C(=O)N[C@@H](CCSC)C(=O)N[C@@H](Cc1ccc(O)cc1)C(=O)O)[C@@H](C)O [compound 59] (H-KHWITLKSGMPMY-OH; N-terminus and C-terminus assumed) | 100 | 100 | <90 | <90 | 90.97 | 
CC[C@H](C)[C@H](NC(=O)[C@H](CCCCN)NC(=O)[C@H](CC(C)C)NC(=O)[C@H](CCC(N)=O)NC(=O)[C@H](CC(C)C)NC(=O)[C@@H](NC(=O)[C@H](CCCCN)NC(=O)[C@@H](N)Cc1c[nH]c2ccccc12)[C@@H](C)O)C(=O)NCC(=O)N[C@@H](C)C(=O)N1CCC[C@H]1C(=O)N[C@@H](CCSC)C(=O)N[C@@H](Cc1ccc(O)cc1)C(=O)O [compound 60] (H-WKTLQLKIGAPMY-OH; N-terminus and C-terminus assumed) | 100 | 100 | <90 |  | <90 | 
CSCC[C@H](NC(=O)[C@@H]1CCCN1C(=O)[C@H](CCC(N)=O)NC(=O)CNC(=O)[C@@H]1CCCN1C(=O)[C@H](Cc1ccccc1)NC(=O)[C@H](CC(C)C)NC(=O)[C@H](CCCCN)NC(=O)[C@H](CC(C)C)NC(=O)[C@H](Cc1c[nH]c2ccccc12)NC(=O)[C@H](Cc1c[nH]cn1)NC(=O)[C@@H](N)CCCCN)C(=O)N[C@@H](Cc1ccc(O)cc1)C(=O)O [compound 61] (H-KHWLKLFPGQPMY-OH; N-terminus and C-terminus assumed) | 100 | 100 | <90 | <90 | 98.64 | 
CC[C@H](C)[C@H](NC(=O)[C@H](CCCCN)NC(=O)[C@@H](NC(=O)[C@H](CCCCN)NC(=O)[C@H](CC(C)C)NC(=O)[C@H](Cc1c[nH]c2ccccc12)NC(=O)[C@H](Cc1c[nH]cn1)NC(=O)[C@@H](N)CCCCN)[C@@H](C)CC)C(=O)NCC(=O)N[C@@H](CCC(=O)O)C(=O)N1CCC[C@H]1C(=O)N[C@@H](CCSC)C(=O)N[C@@H](Cc1ccc(O)cc1)C(=O)O [compound 62] (H-KHWLKIKIGEPMY-OH; N-terminus and C-terminus assumed) | 100 | 100 | <90 | 98.89 | 100 | active

From patent publication US20250382332A1, “NOVEL ALPHA-FACTOR BASED PEPTIDES WITH ANTIFUNGAL ACTIVITY” (INVAIO SCIENCES, INC., priority 2024, published 2025)
